Earlier results on one compound are cited in patent US20200268684A1, “COMPOSITION FOR TREATING AND PREVENTING NEUROLOGICAL DISEASES, NEUROINFLAMATION AND ALZHEIMER'S DISEASE” (HSRX GROUP, LLC, priority 2015, published 2020).

The data set concerns Aβ1-40 and Aβ1-42 peptides in SweAPP N2a cells. To be noted: 3-30 μg/mL, 12 hours.

With `COc1cc(/C=C/C(=O)CC(=O)/C=C/c2ccc(O)c(OC)c2)ccc1O` [curcumin], the “reduction of Aβ1-40 and Aβ1-42 peptides secreted” value was “significant inhibition”.
